Reference: patent publication US6291231A, “Microorganism producing terphenyl compounds” (Shionogi & Co., Ltd., priority 1996, dated 2001)
≈ marks a conversion by molar mass, not a printed value.

Columns and labels:
BDF1 mouse splenocytes [1] = experiment: Suppression of the lipopolysaccharide (LPS) reaction of mouse splenocytes, 3H-thymidine uptake; type: cell-based; conditions: for Radioactivity cpm ± SD / inhibition at 0.00098 µg/mL / inhibition at 0.00391 µg/mL / inhibition at 0.0156 µg/mL / inhibition at 0.0625 µg/mL / inhibition at 0.25 µg/mL: LPS 10 μg/ml; for Radioactivity cpm ± SD: 3H-thymidine; for inhibition at 0.00098 µg/mL / inhibition at 0.00391 µg/mL / inhibition at 0.0156 µg/mL / inhibition at 0.0625 µg/mL / inhibition at 0.25 µg/mL: Mus musculus, 48 h; for inhibition at 0.00098 µg/mL / inhibition at 0.00391 µg/mL / inhibition at 0.0156 µg/mL / inhibition at 0.0625 µg/mL / inhibition at 0.25 µg/mL / IC50: Splenocyte; for IC50: LPS reaction of mouse splenocytes; for Suppressive effect on the LPS reaction of mouse splenocytes (in words): depends on the compound concentration
Experimental: To each well of a 96 well microtiter plate were added 5×10^5 BDF1 mouse splenocytes suspended in 0.1 ml of 10% fetal calf serum-fortifed RPMI 1640 medium (2 mM of sodium bicarbonate, 50 units/ml of penicillin, 50 μg/ml of streptomycin and 5×10^-5 M of 2-mercaptethanol were added) were added. To each well, 5 μg/ml of Con A as a mitogen and the compound (I-1), (I-2) or (I-3) of a pre-determined concentration were added so that a final volume of each well reached 0.2 ml. […] The splenocytes in the 96 well microtiter plate were cultivated at 37° C. for 48 hours in an incubator keeping the humidity 100%, carbon dioxide 5% and air 95%. The cells were pulse-labeledwith 3H-thymidine (18.5 Kbq/well) before 6 hours of harvest. After the cultivation, the cells were collected by a cell harvester and radioactivity taken in the cells was measured for being used as an indicator of a cell proliferation activity. Con A-free (--Con A) medium was used as a control.
By the same method as described in above 1-1 except that lipopolysaccharide (LPS, 10 μg/ml) was used in spite of concanavalin A, a suppression of the reaction was examined. LPS-free (--LPS) medium was used as a control.

BDF1 mouse splenocytes [2] = experiment: Suppression of the concanavalin A (Con A) mitogen reaction of mouse splenocytes, 3H-thymidine uptake; type: cell-based; design: Radioactivity cpm ± SD: dose or concentration left out as unconfirmed; conditions: for inhibition at 0.25 µg/mL: Mus musculus, Splenocyte, 48 h, Con A 5 μg/ml, compound 250.0 ng/ml
BDF1 mouse splenocytes [3] = experiment: as above; type: cell-based; conditions: for Radioactivity cpm ± SD / inhibition at 0.00025 µg/mL / inhibition at 0.00098 µg/mL / inhibition at 0.00391 µg/mL / inhibition at 0.0156 µg/mL / inhibition at 0.0625 µg/mL: Con A 5 μg/ml, 48 h; for Radioactivity cpm ± SD: 3H-thymidine; for inhibition at 0.00025 µg/mL / inhibition at 0.00098 µg/mL / inhibition at 0.00391 µg/mL / inhibition at 0.0156 µg/mL / inhibition at 0.0625 µg/mL: Mus musculus; for inhibition at 0.00025 µg/mL / inhibition at 0.00098 µg/mL / inhibition at 0.00391 µg/mL / inhibition at 0.0156 µg/mL / inhibition at 0.0625 µg/mL / IC50: Splenocyte; for IC50: Con A reaction of mouse splenocytes; for Suppression of the Con A reaction of mouse splenocytes (in words): depending on the compound concentration
Experimental: To each well of a 96 well microtiter plate were added 5×10^5 BDF1 mouse splenocytes suspended in 0.1 ml of 10% fetal calf serum-fortifed RPMI 1640 medium (2 mM of sodium bicarbonate, 50 units/ml of penicillin, 50 μg/ml of streptomycin and 5×10^-5 M of 2-mercaptethanol were added) were added. To each well, 5 μg/ml of Con A as a mitogen and the compound (I-1), (I-2) or (I-3) of a pre-determined concentration were added so that a final volume of each well reached 0.2 ml. Each compound of the present invention was dissolved in dimethylsulfoxide (DMSO) and diluted with the above RPMI 1640 medium to adjust the final concentration to 100 ng/ml or less. The splenocytes in the 96 well microtiter plate were cultivated at 37° C. for 48 hours in an incubator keeping the humidity 100%, carbon dioxide 5% and air 95%. The cells were pulse-labeledwith 3H-thymidine (18.5 Kbq/well) before 6 hours of harvest. After the cultivation, the cells were collected by a cell harvester and radioactivity taken in the cells was measured for being used as an indicator of a cell proliferation activity. Con A-free (--Con A) medium was used as a control.

[4] = Solubility (characterisation data); type: physicochemical

SMILES | Radioactivity cpm ± SD (BDF1 mouse splenocytes [1]; compound 0.98 ng/ml) | Radioactivity cpm ± SD (BDF1 mouse splenocytes [1]; compound 3.91 ng/ml) | Radioactivity cpm ± SD (BDF1 mouse splenocytes [1]; compound 15.6 ng/ml) | Radioactivity cpm ± SD (BDF1 mouse splenocytes [1]; compound 62.5 ng/ml) | Radioactivity cpm ± SD (BDF1 mouse splenocytes [1]; compound 250.0 ng/ml) | inhibition at 0.00098 µg/mL (BDF1 mouse splenocytes [1]; compound 0.98 ng/ml) | inhibition at 0.00391 µg/mL (BDF1 mouse splenocytes [1]; compound 3.91 ng/ml) | inhibition at 0.0156 µg/mL (BDF1 mouse splenocytes [1]; compound 15.6 ng/ml) | inhibition at 0.0625 µg/mL (BDF1 mouse splenocytes [1]; compound 62.5 ng/ml) | inhibition at 0.25 µg/mL (BDF1 mouse splenocytes [1]; compound 250.0 ng/ml) | IC50 (BDF1 mouse splenocytes [1]) | Suppressive effect on the LPS reaction of mouse splenocytes (in words) (BDF1 mouse splenocytes [1]) | Radioactivity cpm ± SD (BDF1 mouse splenocytes [2]) | inhibition at 0.25 µg/mL (BDF1 mouse splenocytes [2]) | Radioactivity cpm ± SD (BDF1 mouse splenocytes [3]; compound 0.25 ng/ml) | Radioactivity cpm ± SD (BDF1 mouse splenocytes [3]; compound 0.98 ng/ml) | Radioactivity cpm ± SD (BDF1 mouse splenocytes [3]; compound 3.91 ng/ml) | Radioactivity cpm ± SD (BDF1 mouse splenocytes [3]; compound 15.6 ng/ml) | Radioactivity cpm ± SD (BDF1 mouse splenocytes [3]; compound 62.5 ng/ml) | inhibition at 0.00025 µg/mL (BDF1 mouse splenocytes [3]; compound 0.25 ng/ml) | also measured
COc1cc(-c2ccccc2)c(OC)c(O)c1-c1ccc(OCC=C(C)C)c(O)c1 [Compound I-2, 3',6'-dimethoxy-4-(3-methyl-2-butenyloxy)-[1,1';4',1"] terphenyl-3,2'-diol] | 208023 ± 8941 cpm | 132834 ± 5106 cpm | 78686 ± 4135 cpm | 39824 ± 651 cpm | 22312 ± 1122 cpm | -35.9% | 13.9% | 49.8% | 75.6% | 87.2% | 15.6 ng/mL (≈ 0.0384 µM) | potent suppressive effect | 8233 ± 254 cpm | 98.2% | 281904 ± 6522 cpm | 281371 ± 10119 cpm | 191575 ± 6969 cpm | 41660 ± 531 cpm | 11793 ± 235 cpm | -1.8% | inhibition at 0.00098 µg/mL (BDF1 mouse splenocytes [3]; compound 0.98 ng/ml): -1.6%; inhibition at 0.00391 µg/mL (BDF1 mouse splenocytes [3]; compound 3.91 ng/ml): 30.9%; inhibition at 0.0156 µg/mL (BDF1 mouse splenocytes [3]; compound 15.6 ng/ml): 86%; inhibition at 0.0625 µg/mL (BDF1 mouse splenocytes [3]; compound 62.5 ng/ml): 96.9%; IC50 (BDF1 mouse splenocytes [3]): 5.6 ng/mL (≈ 0.0138 µM); Suppression of the Con A reaction of mouse splenocytes (in words) (BDF1 mouse splenocytes [3]): significantly suppressed; Solubility in acetone, ethyl acetate and chloroform [4]: soluble; Solubility in water [4]: insoluble
COc1cc(-c2c(OC)cc(-c3ccc(O)cc3)c(OC)c2O)ccc1OCC=C(C)C [Compound I-3, 3,3',6'-trimethoxy-4-(3-methyl-2-butenyloxy)-[1,1';4',1"] terphenyl-2',4"-diol] | 184366 ± 10625 cpm | 128436 ± 4167 cpm | 46765 ± 2209 cpm | 22961 ± 1187 cpm | 14962 ± 866 cpm | -20.2% | 16.8% | 71% | 86.7% | 92% | 8 ng/mL (≈ 0.0183 µM) | potent suppressive effect | 7522 ± 485 cpm | 98.5% | 285408 ± 7252 cpm | 266173 ± 6208 cpm | 101504 ± 1326 cpm | 20510 ± 287 cpm | 7755 ± 624 cpm | -3.1% | inhibition at 0.00098 µg/mL (BDF1 mouse splenocytes [3]; compound 0.98 ng/ml): 4%; inhibition at 0.00391 µg/mL (BDF1 mouse splenocytes [3]; compound 3.91 ng/ml): 64.2%; inhibition at 0.0156 µg/mL (BDF1 mouse splenocytes [3]; compound 15.6 ng/ml): 93.8%; inhibition at 0.0625 µg/mL (BDF1 mouse splenocytes [3]; compound 62.5 ng/ml): 98.4%; IC50 (BDF1 mouse splenocytes [3]): 2 ng/mL (≈ 0.00458 µM); Suppression of the Con A reaction of mouse splenocytes (in words) (BDF1 mouse splenocytes [3]): significantly suppressed; Solubility in acetone, ethyl acetate and chloroform [4]: soluble; Solubility in water [4]: insoluble
